Broadly, the Ki is a measure of affinity in units of concentration, obtained from inhibition or displacement.

Structures are written as SMILES.

In the experiment the target is Gamma-aminobutyric acid receptor subunit alpha-1/beta-2/gamma-2 (Rattus norvegicus, UniProt P62813+P63138+P18508). Nature of the experiment: Binding affinity for recombinant rat GABA-A receptor alpha-1-beta-2-gamma-2 subunits expressed in HEK293 cells.
Chain of Gamma-aminobutyric acid receptor subunit alpha-1/beta-2/gamma-2 (P62813 whole entry): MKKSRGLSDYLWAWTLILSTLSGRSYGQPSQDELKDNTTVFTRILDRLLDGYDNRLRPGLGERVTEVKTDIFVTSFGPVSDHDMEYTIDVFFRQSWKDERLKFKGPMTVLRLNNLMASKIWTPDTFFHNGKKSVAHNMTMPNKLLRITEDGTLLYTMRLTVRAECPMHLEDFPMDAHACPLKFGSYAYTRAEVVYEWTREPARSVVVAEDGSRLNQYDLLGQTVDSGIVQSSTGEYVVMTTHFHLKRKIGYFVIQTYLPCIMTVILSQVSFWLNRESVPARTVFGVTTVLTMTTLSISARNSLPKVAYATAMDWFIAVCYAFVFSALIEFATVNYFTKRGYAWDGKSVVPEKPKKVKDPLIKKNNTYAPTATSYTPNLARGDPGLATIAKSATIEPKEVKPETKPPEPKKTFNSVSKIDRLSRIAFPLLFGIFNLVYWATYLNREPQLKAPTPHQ
Chain of Gamma-aminobutyric acid receptor subunit alpha-1/beta-2/gamma-2 (P63138 whole entry): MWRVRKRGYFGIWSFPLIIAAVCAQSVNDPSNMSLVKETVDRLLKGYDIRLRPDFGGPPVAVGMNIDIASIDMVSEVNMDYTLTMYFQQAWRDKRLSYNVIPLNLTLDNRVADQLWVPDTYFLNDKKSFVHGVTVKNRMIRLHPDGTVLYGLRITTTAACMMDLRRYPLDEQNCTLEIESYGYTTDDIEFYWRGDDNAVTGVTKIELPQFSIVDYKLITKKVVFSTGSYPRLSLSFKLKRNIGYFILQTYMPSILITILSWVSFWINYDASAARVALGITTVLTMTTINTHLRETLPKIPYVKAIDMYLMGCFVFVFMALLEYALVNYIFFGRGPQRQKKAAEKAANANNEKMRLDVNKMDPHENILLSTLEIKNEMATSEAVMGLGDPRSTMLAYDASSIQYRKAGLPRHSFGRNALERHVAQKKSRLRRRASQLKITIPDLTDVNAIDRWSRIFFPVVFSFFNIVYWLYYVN
Chain of Gamma-aminobutyric acid receptor subunit alpha-1/beta-2/gamma-2 (P18508 whole entry): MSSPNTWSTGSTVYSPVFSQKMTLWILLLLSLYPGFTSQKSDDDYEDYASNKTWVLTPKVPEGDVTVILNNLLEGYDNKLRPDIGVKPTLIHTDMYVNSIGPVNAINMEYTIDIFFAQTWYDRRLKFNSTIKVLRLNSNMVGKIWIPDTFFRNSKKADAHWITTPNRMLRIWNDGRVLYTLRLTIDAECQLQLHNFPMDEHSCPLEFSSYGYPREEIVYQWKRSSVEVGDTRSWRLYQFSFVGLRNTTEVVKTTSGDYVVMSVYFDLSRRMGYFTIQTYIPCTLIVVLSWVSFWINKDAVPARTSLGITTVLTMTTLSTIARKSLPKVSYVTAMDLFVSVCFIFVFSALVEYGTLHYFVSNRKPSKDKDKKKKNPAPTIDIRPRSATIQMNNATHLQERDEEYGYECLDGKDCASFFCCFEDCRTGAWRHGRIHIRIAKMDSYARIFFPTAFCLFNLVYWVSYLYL

As for `O=c1c(-c2ccsc2)cnc2c(-c3cccc(Br)c3)c[nH]n12` [3-(3-Bromo-phenyl)-6-thiophen-3-yl-4H-pyrazolo[1,5-a]pyrimidin-7-one], the Ki came to 10 nM.

Turning to `O=c1c(-c2ccsc2)cnc2c(-c3cccc(C(F)(F)F)c3)c[nH]n12` [6-Thiophen-3-yl-3-(3-trifluoromethyl-phenyl)-4H-pyrazolo[1,5-a]pyrimidin-7-one], the Ki came out at 10 nM.

These data come from BindingDB's records for doi:10.1021/jm020999w (University of Firenze, 2003).
